Patent US20160304957A1, “TREATMENT AND MODULATION OF GENE EXPRESSION AND SKIN AGING” (DSM NUTRITIONAL PRODUCTS LTD., priority 2006, published 2016)

Legend:
[1] = system: HaCaT cells; assay: Depletion of cellular β-carotene content by UVA irradiation, HPLC; assay type: in vitro ADME, human; conditions: 270 kJ/m^2 UVA
Method: On day 3 of the experiment, cells were washed six times with Ca/Mg-free PBS containing 2% BSA, and then irradiated with light with a Hönle sun lamp Sol 500 (Dr. Hönle, Plannegg, Germany) at a dose of 270 kJ/m^2 in Ca/Mg-free PBS (2 hour exposure time at […]). The experimental schedule was chosen because the cells had optimal UVA sensitivity after 48 hours in culture. […] Confluent cultures were much less sensitive to irradiation.

[2] = system: TIMP-1; assay: QRT-PCR gene expression in HaCaT cells with or without UVA; assay type: cell-based, human
Method: HaCaT cells were obtained from Prof. Fusenig, German Cancer Research Centre, Heidelberg. […] The accuracy of cell counting was approximately 99%.
Vitamin E (RRR-α-tocopherol; DSM Nutritional Products, Kaiseraugst, Switzerland) stock solutions and vitamin E-containing media were prepared as described for β-carotene-containing solutions, except that vitamin E was dissolved in ethanol. In experiments addressing the vitamin E effect, vitamin E was used in a final concentration of 50 μM. Again, the solvent concentration was kept constant at 0.03% ethanol for all conditions.
On day 3 of the experiment, cells were washed six times with Ca/Mg-free PBS containing 2% BSA, and then irradiated with light with a Hönle sun lamp Sol 500 (Dr. Hönle, Plannegg, Germany) at a dose of 270 kJ/m^2 in Ca/Mg-free PBS (2 hour exposure time at […]). The experimental schedule was chosen because the cells had optimal UVA sensitivity after 48 hours in culture. […] Confluent cultures were much less sensitive to irradiation. […]
cDNA corresponding to 10 ng total RNA was used as template to quantify the relative RNA expression of the genes of interest by TaqMan® real time PCR.
The PCR analyses were carried out in triplicate and in a multiplex setup, using 18S rRNA as a calibrator gene. […] For quantification of the genes of interest, the primer concentrations were optimized for sensitivity of template detection. […] Regulation of gene expression was calculated as described in user bulletin #2 provided by the manufacturer. A threshold cycle (“CT”) is the first PCR cycle in which an amplification signal is detected. […] The δCT value describes the level of gene expression as the average PCR cycle, in which the gene of interest was detected first (CT value), subtracted by the CT value of the calibrator gene 18S rRNA (CTgene of interest−CTcalibrating gene), 18S rRNA served as a measure for the amount of template in the reaction. Routinely, 18S rRNA was detected between PCR cycle 12 and 13 (SE=standard error) A low δCT corresponds to a high mRNA level.

Question: Which “effect of UVA on cellular β-carotene content” value ([1]; 0.5 μM β-carotene 2 days) does the source give for `CC1=C(/C=C/C(C)=C/C=C/C(C)=C/C=C/C=C(C)/C=C/C=C(C)/C=C/C2=C(C)CCCC2(C)C)C(C)(C)CCC1` [β-carotene, All-E-β-carotene] here?
Answer: did not reduce

Question: And the “cellular β-carotene stores remaining after UVA irradiation” value ([1]; 1.5 or 3 μM β-carotene 2 days)?
Answer: about 13%

Question: And the TIMP-1 expression ([2]; UVA/D2O experiments)?
Answer: not significantly influenced

Question: What about the “TIMP-1 RNA level” value ([2]; β-carotene, with or without UVA) of the same molecule?
Answer: not significantly influenced
